The record followed here is ChEMBL document CHEMBL4190308, “Drifting of heme-coordinating group in imidazolylmethylxanthones leading to improved selective inhibition of CYP11B1” (Eur J Med Chem, 2017).

In experiment [1] the target is T1, Cytochrome P450 11B2, mitochondrial (Homo sapiens, UniProt P19099).
T1 sequence (P19099 whole entry): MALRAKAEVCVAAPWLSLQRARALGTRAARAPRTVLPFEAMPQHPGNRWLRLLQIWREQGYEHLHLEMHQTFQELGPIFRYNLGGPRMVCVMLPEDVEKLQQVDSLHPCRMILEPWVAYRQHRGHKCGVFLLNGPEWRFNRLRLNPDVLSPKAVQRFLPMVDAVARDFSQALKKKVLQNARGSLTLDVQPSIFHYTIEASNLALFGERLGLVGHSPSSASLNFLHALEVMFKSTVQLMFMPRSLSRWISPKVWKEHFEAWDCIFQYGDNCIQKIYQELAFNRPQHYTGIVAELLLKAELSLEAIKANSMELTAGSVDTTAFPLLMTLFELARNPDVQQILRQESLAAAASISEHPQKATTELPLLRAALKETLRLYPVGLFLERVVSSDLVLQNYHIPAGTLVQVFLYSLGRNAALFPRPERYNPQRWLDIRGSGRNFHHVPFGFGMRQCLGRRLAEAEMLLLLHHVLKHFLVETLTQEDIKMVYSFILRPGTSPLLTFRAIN
The experiment in a line: Inhibition of human CYP11B2 expressed in hamster V79MZh cells using [1,2-3H]-11-deoxycorticosterone as substrate after 30 mins by HPTLC analysis. In kind it is cell-based.

The target in experiment [2] is T2, Cytochrome P450 11B1, mitochondrial (Homo sapiens, UniProt P15538).
T2 sequence (P15538 whole entry): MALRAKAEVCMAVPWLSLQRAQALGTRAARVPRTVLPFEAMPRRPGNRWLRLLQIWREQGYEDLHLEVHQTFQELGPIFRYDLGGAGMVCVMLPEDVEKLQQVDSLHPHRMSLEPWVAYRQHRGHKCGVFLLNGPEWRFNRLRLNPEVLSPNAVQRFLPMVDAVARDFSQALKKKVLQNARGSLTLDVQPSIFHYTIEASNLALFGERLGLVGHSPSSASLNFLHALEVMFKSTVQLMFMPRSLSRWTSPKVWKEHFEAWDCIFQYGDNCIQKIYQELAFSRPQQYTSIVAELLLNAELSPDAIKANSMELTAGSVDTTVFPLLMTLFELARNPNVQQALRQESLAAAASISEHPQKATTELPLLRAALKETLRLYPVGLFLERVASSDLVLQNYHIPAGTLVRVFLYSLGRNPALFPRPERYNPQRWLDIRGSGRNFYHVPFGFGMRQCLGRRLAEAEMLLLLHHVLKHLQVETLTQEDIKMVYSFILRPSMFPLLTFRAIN
Put plainly: Inhibition of human CYP11B1 expressed in hamster V79MZh cells using [1,2-3H]-11-deoxycorticosterone as substrate after 6 hrs by HPTLC analysis. Type of experiment: cell-based.

The species entered for a further experiment is Homo sapiens. Put plainly: Selectivity index, ratio of IC50 for human CYP11B2 to IC50 for human CYP11B1.

In the case of `CC(C)Oc1ccc2c(=O)c3ccc(Cn4ccnc4)cc3oc2c1`, the figures for the IC50 in experiment [1] and in experiment [2] were 16.6 nM and 4.1 nM, respectively. Moreover, the Ratio IC50 in the experiment filed under Homo sapiens is 4.

Consider `O=c1c2ccccc2oc2cc(Cn3ccnc3)ccc12`, for which the values for the half-inhibitory concentration (IC50) in experiment [1] and in experiment [2] were 344 nM and 70.8 nM, respectively. Also, the Ratio IC50 in the experiment listed under Homo sapiens worked out at 4.8.

With `O=c1c2ccc(Cn3ccnc3)cc2oc2cc(Oc3ccccc3)ccc12`, the 50% inhibitory concentration (IC50) in experiment [1] was found to be 26.2 nM; in experiment [2], 6.5 nM. Further, in the experiment listed under Homo sapiens, the Ratio IC50 was found to be 4.

For `O=c1c2ccccc2oc2ccc(Cn3ccnc3)cc12`, the IC50 in experiment [1] stood at 1140 nM; in experiment [2], 463 nM. The Ratio IC50 in the experiment filed under Homo sapiens amounted to 2.5.

Regarding `O=c1c2ccccc2oc2c(Cn3ccnc3)cccc12`, the figures for the IC50 in experiment [1] and in experiment [2] were 43.7 nM and 15.1 nM, respectively. The Ratio IC50 in the experiment filed under Homo sapiens came to 2.9.

Turning to `O=c1c2ccc(Br)cc2oc2cc(Cn3ccnc3)ccc12`, the values for the IC50 in experiment [1] and in experiment [2] were 44.4 nM and 11.4 nM, respectively. Also, in the experiment listed under Homo sapiens, the Ratio IC50 amounted to 3.9.

As for `O=c1c2ccc(F)cc2oc2cc(Cn3ccnc3)ccc12`, the IC50 was 82 nM in experiment [1] and 12.3 nM in experiment [2]. Besides, in the experiment listed under Homo sapiens, the Ratio IC50 was determined as 6.7.

On to `O=c1c2ccc(Cn3ccnc3)cc2oc2cc(OC3CCCC3)ccc12`, for which the IC50 in experiment [1] came out at 20.3 nM; in experiment [2] it was 5.8 nM. Besides, the Ratio IC50 in the experiment filed under Homo sapiens is 3.5.

`O=c1c2ccc(Cn3ccnc3)cc2oc2cc(OCC3CC3)ccc12`: the 50% inhibitory concentration (IC50) in experiment [1] is 22.3 nM; in experiment [2], 4.7 nM. In addition, the Ratio IC50 in the experiment filed under Homo sapiens amounted to 4.7.

On to `O=c1c2ccc(Cl)cc2oc2cc(Cn3ccnc3)ccc12`, for which the IC50 in experiment [1] was determined as 95.3 nM; in experiment [2], 6.6 nM. Also, in the experiment listed under Homo sapiens, the Ratio IC50 was 14.4.

In the case of `COc1ccc2c(=O)c3ccc(Cn4ccnc4)cc3oc2c1`, the 50% inhibitory concentration (IC50) turned out to be 45.4 nM in experiment [1] and 15.4 nM in experiment [2]. Besides, in the experiment listed under Homo sapiens, the Ratio IC50 came to 2.9.

In the case of `O=c1c2ccc(Cn3ccnc3)cc2oc2cc([N+](=O)[O-])ccc12`, the IC50 in experiment [1] worked out at 135 nM; in experiment [2], 19.2 nM. In addition, the Ratio IC50 in the experiment filed under Homo sapiens came out at 7.

Consider `O=c1c2ccccc2oc2cccc(Cn3ccnc3)c12`, for which the IC50 in experiment [1] was determined as 114 nM; in experiment [2], 99.1 nM. The Ratio IC50 in the experiment listed under Homo sapiens amounted to 1.2.

By IC50 is commonly meant the concentration that gives 50% inhibition.
